# Values quoted from earlier work as cited in PMC7114426 (Virus Research, 2012).
# System: nsp16
row,SMILES,inhibition of the MTase activity of nsp16
1,"O=C(O)C1=CC(=C(c2ccc(O)c(C(=O)O)c2)c2ccc(O)c(C(=O)O)c2)C=CC1=O [ATA, aurintricarboxylic acid]",inhibit the MTase activity of nsp16
2,"Nc1ncnc2c1ncn2[C@@H]1O[C@H](CSCC[C@H](N)C(=O)O)[C@@H](O)[C@H]1O [SAH, S-adenosyl-l-homocysteine]",inhibit the MTase activity of nsp16
3,Nc1ncnc2c1ncn2[C@@H]1O[C@H](C[C@@H](N)CC[C@H](N)C(=O)O)[C@@H](O)[C@H]1O [sinefungin],inhibit the MTase activity of nsp16
